The text below walks through data of patent US12649751B2 (Arcus Biosciences, Inc., priority 2022, dated 2026).

For one experiment, the target named is HPK1 (Homo sapiens, UniProt Q92918). The experiment can be described thus: HPK1 Biochemical Assay (ADP-Glo luminescence; low ATP 10 μM or high ATP 200 μM). In general terms: ADP-Glo first removes unused ATP, then detects ADP through luciferase.
The subject of experiment [1] is p-SLP-76 (Ser376) in Jurkat cells. The experiment can be described thus: pSLP76 Cellular Assay (AlphaLISA SureFire Ultra p-SLP-76 (Ser376), anti-CD3 activated Jurkat cells). The class given is cell-based. Conditions: Homo sapiens, read-out: Cellular Potency. Put shortly:
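Jurkat cells, serum-starved overnight in Opti-MEM then in HBSS, preincubated 1 h at 37 °C with 22-point 2-fold compound dilutions, then stimulated with anti-CD3 (0.025 mg/ml added solution) for 45 min. Lysate p-SLP-76 (Ser376) measured by AlphaLISA at 570 nm; IC50 from 4-parameter logistic fit.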
(In Alpha technology, singlet oxygen from a donor bead excites a nearby acceptor bead.)

The mark [2] stands for this setting: 2 nM HPK1, 10 μM ATP, read-out: Biochemical Potency (low ATP).
Where [3] appears, read: Jurkat cells, anti-CD3 stimulation, pSLP76.
[4] abbreviates: 5 nM HPK1, 200 μM ATP, read-out: Biochemical Potency (high ATP).
Where [5] appears, read: HPK1 ADP-Glo assay, high ATP (200 μM ATP, 5 nM HPK1), read-out: Biochemical Potency (high ATP).
Where [6] appears, read: pSLP76 (Ser376) AlphaLISA, anti-CD3 activated Jurkat cells.

SMILES strings stand for the structures. Read-outs that look alike come from different tables or passages of the source.

Chain of HPK1 (Q92918 whole entry, species assumed): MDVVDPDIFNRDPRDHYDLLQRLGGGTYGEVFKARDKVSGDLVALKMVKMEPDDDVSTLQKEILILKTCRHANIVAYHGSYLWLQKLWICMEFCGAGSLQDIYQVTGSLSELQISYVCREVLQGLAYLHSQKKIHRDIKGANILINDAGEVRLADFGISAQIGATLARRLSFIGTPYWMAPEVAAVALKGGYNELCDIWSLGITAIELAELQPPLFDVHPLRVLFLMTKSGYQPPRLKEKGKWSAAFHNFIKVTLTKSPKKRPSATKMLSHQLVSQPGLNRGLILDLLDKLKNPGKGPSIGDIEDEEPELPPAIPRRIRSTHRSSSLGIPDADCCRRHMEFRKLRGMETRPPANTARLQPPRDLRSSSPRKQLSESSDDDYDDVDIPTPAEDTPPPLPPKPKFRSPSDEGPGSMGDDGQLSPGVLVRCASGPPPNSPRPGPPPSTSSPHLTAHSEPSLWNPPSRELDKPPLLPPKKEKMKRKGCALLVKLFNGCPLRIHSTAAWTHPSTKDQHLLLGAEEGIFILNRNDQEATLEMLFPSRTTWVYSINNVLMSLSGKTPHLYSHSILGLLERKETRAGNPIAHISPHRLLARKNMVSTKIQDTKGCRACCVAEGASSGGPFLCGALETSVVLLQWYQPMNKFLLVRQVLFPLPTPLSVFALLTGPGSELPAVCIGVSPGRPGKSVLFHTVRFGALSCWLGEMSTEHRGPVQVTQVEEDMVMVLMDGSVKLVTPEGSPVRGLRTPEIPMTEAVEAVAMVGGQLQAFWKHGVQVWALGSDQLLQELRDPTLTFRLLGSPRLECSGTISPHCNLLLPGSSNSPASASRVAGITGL

For `Cc1ccnn1-c1nc2cc(Nc3ccc(N4CCOCC4)c(C(C)(C)N)n3)ncc2s1` [Example 270, 6-(2-Aminopropan-2-yl)-N-[2-(5-methyl-1H-pyrazol-1-yl)-[1,3]thiazolo[5,4-c]pyridin-6-yl]-5-(morpholin-4-yl)pyridin-2-amine], the values for the IC50 (at HPK1 (setting [2]); in experiment [1] (setting [3])) were below 100 nM and 100 to 1000 nM, respectively.

Regarding `CC(C)(N)c1nc(Nc2cc3nc(-c4c(F)cccc4F)sc3cn2)ccc1N1CCC(F)(F)C1` [Example 271, 6-(2-Aminopropan-2-yl)-N-[2-(2,6-difluorophenyl)-[1,3]thiazolo[5,4-c]pyridin-6-yl]-5-(3,3-difluoropyrrolidin-1-yl)pyridin-2-amine], the figures for the IC50 (on HPK1 (setting [2]); in experiment [1] (setting [3])) were below 100 nM and 1000 to 5000 nM, respectively.

Take `Cc1ccnn1-c1nc2cc(Nc3ccc(N4CCC(F)(F)C4)c(C(C)(C)N)n3)ncc2s1` [Example 273, 6-(2-Aminopropan-2-yl)-5-(3,3-difluoropyrrolidin-1-yl)-N-[2-(5-methyl-1H-pyrazol-1-yl)-[1,3]thiazolo[5,4-c]pyridin-6-yl]pyridin-2-amine]: the IC50 on HPK1 (setting [2]) is below 100 nM; in experiment [1] (setting [3]), 100 to 1000 nM.

With `NC1(c2nc(Nc3cc4nc(-c5c(F)cccc5F)sc4cn3)ccc2N2CCC(F)(F)C2)CC1` [Example 274, 6-(1-Aminocyclopropyl)-N-[2-(2,6-difluorophenyl)-[1,3]thiazolo[5,4-c]pyridin-6-yl]-5-(3,3-difluoropyrrolidin-1-yl)pyridin-2-amine], the results for the IC50 (on HPK1 (setting [2]); in experiment [1] (setting [3])) were below 100 nM and above 5000 nM, respectively.

Regarding `CN(C)Cc1cc(N2CCOCC2)cc(Nc2cc3nc(-c4c(F)cccc4F)sc3cn2)n1` [Example 275, N-[2-(2,6-Difluorophenyl)-[1,3]thiazolo[5,4-c]pyridin-6-yl]-6-[(dimethylamino)methyl]-4-(morpholin-4-yl)pyridin-2-amine], the values for the IC50 (on HPK1 (setting [2]); in experiment [1] (setting [3])) were below 100 nM and above 5000 nM, respectively.

`CN(C)Cc1ccc(N2CCOCC2)c(Nc2cc3nc(-c4c(F)cccc4F)sc3cn2)n1` [Example 276, N-[2-(2,6-Difluorophenyl)-[1,3]thiazolo[5,4-c]pyridin-6-yl]-6-[(dimethylamino)methyl]-3-(morpholin-4-yl)pyridin-2-amine]: the IC50 (at HPK1 (setting [2]); in experiment [1] (setting [3])) was above 5000 nM in each case.

With `CC(c1nc(Nc2cc3nc(-c4c(F)cccc4F)sc3cn2)ccc1N1CCOCC1)N(C)C` (stereo not shown) [Example 277, N-[2-(2,6-Difluorophenyl)-[1,3]thiazolo[5,4-c]pyridin-6-yl]-6-[1-(dimethylamino)ethyl]-5-(morpholin-4-yl)pyridin-2-amine], the IC50 at HPK1 (setting [2]) was below 100 nM; in experiment [1] (setting [3]) it was 1000 to 5000 nM.

As to `CCNC(C)c1nc(Nc2cc3nc(-c4c(F)cccc4F)sc3cn2)ccc1N1CCOCC1` (stereo not shown) [Example 278, N-[2-(2,6-Difluorophenyl)-[1,3]thiazolo[5,4-c]pyridin-6-yl]-6-[1-(ethylamino)ethyl]-5-(morpholin-4-yl)pyridin-2-amine], the results for the IC50 (at HPK1 (setting [2]); in experiment [1] (setting [3])) were below 100 nM and above 5000 nM, respectively.

On to `CN1C[C@@H]2C[C@H]1CN2c1cncc(Nc2cc3nc(-c4cccc(NS(C)(=O)=O)c4)sc3cn2)n1` [Example 285, N-{3-[6-({6-[(1S,4S)-5-methyl-2,5-diazabicyclo[2.2.1]heptan-2-yl]pyrazin-2-yl}amino)-[1,3]thiazolo[5,4-c]pyridin-2-yl]phenyl}methanesulfonamide], for which the IC50 at HPK1 (setting [2]) was below 100 nM; on HPK1 (setting [4]), below 100 nM; in experiment [1] (setting [3]), 100 to 1000 nM.

For `CN1C[C@@H]2C[C@H]1CN2c1nccc(Nc2cc3nc(-c4cccc(NS(C)(=O)=O)c4)sc3cn2)n1` [Example 286, N-{3-[6-({2-[(1S,4S)-5-methyl-2,5-diazabicyclo[2.2.1]heptan-2-yl]pyrimidin-4-yl}amino)-[1,3]thiazolo[5,4-c]pyridin-2-yl]phenyl}methanesulfonamide], the IC50 at HPK1 (setting [2]) is below 100 nM; on HPK1 (setting [4]) it was below 100 nM; in experiment [1] (setting [3]) it was 1000 to 5000 nM.

As for `CN1C[C@@H]2C[C@H]1CN2c1cncc(Nc2cc3nc(-c4cccc(S(=O)(=O)N(C)C)c4)sc3cn2)n1` [Example 288, N,N-dimethyl-3-[6-({6-[(1S,4S)-5-methyl-2,5-diazabicyclo[2.2.1]heptan-2-yl]pyrazin-2-yl}amino)-[1,3]thiazolo[5,4-c]pyridin-2-yl]benzene-1-sulfonamide], the IC50 lay in the range of 100 to 1000 nM at HPK1 (setting [2]) and 1000 to 5000 nM in experiment [1] (setting [3]).

Consider `CN1C[C@@H]2C[C@H]1CN2c1nccc(Nc2cc3nc(-c4cccc(S(=O)(=O)N(C)C)c4)sc3cn2)n1` [Example 289, N,N-dimethyl-3-[6-({2-[(1S,4S)-5-methyl-2,5-diazabicyclo[2.2.1]heptan-2-yl]pyrimidin-4-yl}amino)-[1,3]thiazolo[5,4-c]pyridin-2-yl]benzene-1-sulfonamide], for which the IC50 on HPK1 (setting [2]) is below 100 nM; in experiment [1] (setting [3]), 100 to 1000 nM.

As to `CNS(=O)(=O)c1cccc(-c2nc3cc(Nc4cncc(N5C[C@@H]6C[C@H]5CN6C)n4)ncc3s2)c1` [Example 290, N-methyl-3-[6-({6-[(1S,4S)-5-methyl-2,5-diazabicyclo[2.2.1]heptan-2-yl]pyrazin-2-yl}amino)-[1,3]thiazolo[5,4-c]pyridin-2-yl]benzene-1-sulfonamide], the IC50 was below 100 nM on HPK1 (setting [2]) and 100 to 1000 nM in experiment [1] (setting [3]).

Consider `CNS(=O)(=O)c1cccc(-c2nc3cc(Nc4ccnc(N5C[C@@H]6C[C@H]5CN6C)n4)ncc3s2)c1` [Example 291, N-methyl-3-[6-({2-[(1S,4S)-5-methyl-2,5-diazabicyclo[2.2.1]heptan-2-yl]pyrimidin-4-yl}amino)-[1,3]thiazolo[5,4-c]pyridin-2-yl]benzene-1-sulfonamide], for which the values for the IC50 (on HPK1 (setting [2]); in experiment [1] (setting [3])) were below 100 nM and 100 to 1000 nM, respectively.

Turning to `CCN1C[C@@H]2C[C@H]1CN2c1nc(C)cc(Nc2cc3nc(-c4cncc(N5C(=O)OC[C@H]5C)c4)sc3cn2)n1` [Example 295, (4R)-3-{5-[6-({2-[(1S,4S)-5-ethyl-2,5-diazabicyclo[2.2.1]heptan-2-yl]-6-methylpyrimidin-4-yl}amino)-[1,3]thiazolo[5,4-c]pyridin-2-yl]pyridin-3-yl}-4-methyl-1,3-oxazolidin-2-one], the IC50 was below 100 nM on HPK1 (setting [5]) and 100 to 1000 nM in experiment [1] (setting [6]).

`CCN1C[C@@H]2C[C@H]1CN2c1nc(C)cc(Nc2cc3nc(-c4nc(N)ccc4C)sc3cn2)n1` [Example 296, N-[2-(6-amino-3-methylpyridin-2-yl)-[1,3]thiazolo[5,4-c]pyridin-6-yl]-2-[(1S,4S)-5-ethyl-2,5-diazabicyclo[2.2.1]heptan-2-yl]-6-methylpyrimidin-4-amine]: the IC50 (at HPK1 (setting [5]); in experiment [1] (setting [6])) was below 100 nM each time.

Consider `CCN1C[C@@H]2C[C@H]1CN2c1nc(C)cc(Nc2cc3nc(-c4cncc(N5CCOC[C@H]5C)c4)sc3cn2)n1` [Example 297, 2-[(1S,4S)-5-ethyl-2,5-diazabicyclo[2.2.1]heptan-2-yl]-6-methyl-N-(2-{5-[(3R)-3-methylmorpholin-4-yl]pyridin-3-yl}-[1,3]thiazolo[5,4-c]pyridin-6-yl)pyrimidin-4-amine], for which the IC50 is below 100 nM at HPK1 (setting [5]) and 100 to 1000 nM in experiment [1] (setting [6]).

As for `CCN1C[C@@H]2C[C@H]1CN2c1nc(C)cc(Nc2cc3nc(O[C@H](C)c4ccccc4)sc3cn2)n1` [Example 298, 2-[(1S,4S)-5-ethyl-2,5-diazabicyclo[2.2.1]heptan-2-yl]-6-methyl-N-{2-[(1R)-1-phenylethoxy]-[1,3]thiazolo[5,4-c]pyridin-6-yl}pyrimidin-4-amine], the IC50 (on HPK1 (setting [5]); in experiment [1] (setting [6])) was below 100 nM each time.

For `Cc1cc(Nc2cc3nc(-c4nncn4C)sc3cn2)nc(N2C[C@@H]3C[C@H]2CN3CCO)n1` [Example 299, 2-[(1S,4S)-5-(4-methyl-6-{[2-(4-methyl-4H-1,2,4-triazol-3-yl)-[1,3]thiazolo[5,4-c]pyridin-6-yl]amino}pyrimidin-2-yl)-2,5-diazabicyclo[2.2.1]heptan-2-yl]ethan-1-ol], the IC50 is below 100 nM at HPK1 (setting [5]) and 100 to 1000 nM in experiment [1] (setting [6]).

Consider `Cc1cccnc1-c1nc2cc(Nc3ccc4c(n3)CNCC4)ncc2s1` [Example 300, N-[2-(3-methylpyridin-2-yl)-[1,3]thiazolo[5,4-c]pyridin-6-yl]-5,6,7,8-tetrahydro-1,7-naphthyridin-2-amine], for which the IC50 was below 100 nM at HPK1 (HPK1 ADP-Glo assay, low ATP (10 μM ATP, 2 nM HPK1), read-out: Biochemical Potency (low ATP)) and 1000 to 5000 nM in experiment [1] (setting [6]).

On to `Cc1cc(Nc2cc3nc(-c4cnn(C)c4)sc3cn2)nc(N2C[C@@H]3C[C@H]2CN3CCO)n1` [Example 301, 2-[(1S,4S)-5-(4-Methyl-6-{[2-(1-methyl-1H-pyrazol-4-yl)-[1,3]thiazolo[5,4-c]pyridin-6-yl]amino}pyrimidin-2-yl)-2,5-diazabicyclo[2.2.1]heptan-2-yl]ethan-1-ol], for which the IC50 (at HPK1 (setting [5]); in experiment [1] (setting [6])) was below 100 nM each time.

For `Cc1cccnc1-c1nc2cc(Nc3cc(C4CCC(O)CC4)nc(N4C[C@@H]5C[C@H]4CN5)n3)ncc2s1` (stereo partly drawn) [Example 302, 4-{2-[(1S,4S)-2,5-diazabicyclo[2.2.1]heptan-2-yl]-6-{[2-(3-methylpyridin-2-yl)-[1,3]thiazolo[5,4-c]pyridin-6-yl]amino}pyrimidin-4-yl}cyclohexan-1-ol], the IC50 (on HPK1 (setting [5]); in experiment [1] (setting [6])) was below 100 nM each time.
